# Measured values as given in ChEMBL document CHEMBL5465560, “Selectivity Literature for EUbOPEN Chemogenomic Library” (2024).
# Tests used:
# [1] = system: Receptor-type tyrosine-protein kinase FLT3 (Homo sapiens), P36888 [UNDEFINED MUTATION]; assay: Selectivity interaction (KinomeScan (DiscoverX)) EUB0001049a FLT3; conditions: at 1 µM
# [2] = target: Inhibitor of nuclear factor kappa-B kinase subunit epsilon (Homo sapiens, UniProt Q14164); assay: Selectivity interaction (Enyzmatic assay) EUB0000601a IKBKE
# [3] = target: T1, Dual specificity mitogen-activated protein kinase kinase 5 (Homo sapiens) (UniProt Q13163); assay: Selectivity interaction (KinomeScan (DiscoverX)) EUB0000229b MAP2K5; conditions: at 10 µM
# T1 sequence (whole entry): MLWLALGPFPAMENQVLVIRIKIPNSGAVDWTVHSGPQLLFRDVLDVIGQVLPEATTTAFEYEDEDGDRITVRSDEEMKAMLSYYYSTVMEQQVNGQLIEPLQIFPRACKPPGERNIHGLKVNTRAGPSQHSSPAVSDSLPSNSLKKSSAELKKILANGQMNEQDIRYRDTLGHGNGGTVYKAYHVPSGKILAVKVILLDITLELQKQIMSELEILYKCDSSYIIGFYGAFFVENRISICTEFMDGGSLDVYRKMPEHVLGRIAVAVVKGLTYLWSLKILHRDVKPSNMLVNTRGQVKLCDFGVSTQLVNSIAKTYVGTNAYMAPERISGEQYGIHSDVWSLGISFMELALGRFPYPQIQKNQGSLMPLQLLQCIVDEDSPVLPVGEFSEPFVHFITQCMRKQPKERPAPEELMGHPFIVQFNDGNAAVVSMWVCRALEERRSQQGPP
# [4] = target: T2, Serine/threonine-protein kinase ICK (Homo sapiens) (UniProt Q9UPZ9); assay: Selectivity interaction (KinomeScan (DiscoverX)) EUB0001079a ICK; conditions: at 1 µM
# T2 sequence (whole entry): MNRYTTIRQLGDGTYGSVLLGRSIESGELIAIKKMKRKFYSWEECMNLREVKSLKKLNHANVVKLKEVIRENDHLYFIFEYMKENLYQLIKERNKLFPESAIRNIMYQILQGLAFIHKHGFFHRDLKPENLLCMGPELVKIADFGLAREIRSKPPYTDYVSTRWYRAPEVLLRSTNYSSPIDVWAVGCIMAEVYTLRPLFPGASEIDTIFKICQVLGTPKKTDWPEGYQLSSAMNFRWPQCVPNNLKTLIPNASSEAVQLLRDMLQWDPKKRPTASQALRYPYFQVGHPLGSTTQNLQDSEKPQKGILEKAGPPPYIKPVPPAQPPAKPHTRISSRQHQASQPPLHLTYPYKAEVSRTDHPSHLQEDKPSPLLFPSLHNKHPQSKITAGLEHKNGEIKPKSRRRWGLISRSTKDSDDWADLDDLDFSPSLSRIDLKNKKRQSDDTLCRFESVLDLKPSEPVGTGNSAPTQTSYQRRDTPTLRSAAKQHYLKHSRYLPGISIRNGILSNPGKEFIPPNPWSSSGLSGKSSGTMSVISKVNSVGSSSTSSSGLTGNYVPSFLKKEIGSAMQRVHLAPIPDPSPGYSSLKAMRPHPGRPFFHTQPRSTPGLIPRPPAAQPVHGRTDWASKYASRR
# [5] = target: Mitogen-activated protein kinase kinase kinase 11 (Homo sapiens) (UniProt Q16584); assay: Selectivity interaction (Ambit KINOMEscan and KiNATiv profiling in Jurkat cells) EUB0000090b MAP3K11; assay type: cell-based; conditions: at 1 µM
# [6] = target: Mitogen-activated protein kinase kinase kinase 20 (Homo sapiens) (UniProt Q9NYL2); assay: Selectivity interaction (KinomeScan (DiscoverX)) EUB0000045b MAP3K20
# [7] = target: T3, Cyclin-dependent kinase 11A (Homo sapiens) (UniProt Q9UQ88); assay: Selectivity interaction (KinomeScan (DiscoverX)) EUB0000618a CDK11A; conditions: at 10 µM
# T3 sequence (whole entry): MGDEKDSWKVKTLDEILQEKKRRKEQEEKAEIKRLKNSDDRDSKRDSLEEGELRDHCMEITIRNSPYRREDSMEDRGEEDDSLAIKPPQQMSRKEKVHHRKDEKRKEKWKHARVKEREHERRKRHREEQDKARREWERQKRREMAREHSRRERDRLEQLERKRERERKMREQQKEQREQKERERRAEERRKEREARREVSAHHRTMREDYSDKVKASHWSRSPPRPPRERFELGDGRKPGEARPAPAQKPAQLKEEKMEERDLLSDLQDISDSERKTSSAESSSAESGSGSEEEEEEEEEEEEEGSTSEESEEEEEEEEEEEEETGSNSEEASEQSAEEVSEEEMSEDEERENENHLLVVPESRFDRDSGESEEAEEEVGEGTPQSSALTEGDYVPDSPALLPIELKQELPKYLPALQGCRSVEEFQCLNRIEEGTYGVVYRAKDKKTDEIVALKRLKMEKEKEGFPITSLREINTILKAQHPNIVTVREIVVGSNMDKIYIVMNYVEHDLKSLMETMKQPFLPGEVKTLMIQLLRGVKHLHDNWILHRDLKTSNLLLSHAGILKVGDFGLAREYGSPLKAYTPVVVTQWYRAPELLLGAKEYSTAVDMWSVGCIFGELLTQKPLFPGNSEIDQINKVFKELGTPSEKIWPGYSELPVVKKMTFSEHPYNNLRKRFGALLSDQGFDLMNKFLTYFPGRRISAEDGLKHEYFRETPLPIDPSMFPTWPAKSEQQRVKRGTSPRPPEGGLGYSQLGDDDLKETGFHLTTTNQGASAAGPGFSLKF
# [8] = target: Ribosomal protein S6 kinase alpha-4 (Homo sapiens) (UniProt O75676); assay: Selectivity interaction (KinomeScan (DiscoverX)) EUB0000695a RPS6KA4; conditions: at 100 nM
# Misshapen-like kinase 1 = Misshapen-like kinase 1 (Homo sapiens, UniProt Q8N4C8); assay: Selectivity interaction (KinomeScan (DiscoverX)) EUB0000607a MINK1; conditions: at 10 µM
# Chain of Misshapen-like kinase 1 (Q8N4C8 whole entry, looked up): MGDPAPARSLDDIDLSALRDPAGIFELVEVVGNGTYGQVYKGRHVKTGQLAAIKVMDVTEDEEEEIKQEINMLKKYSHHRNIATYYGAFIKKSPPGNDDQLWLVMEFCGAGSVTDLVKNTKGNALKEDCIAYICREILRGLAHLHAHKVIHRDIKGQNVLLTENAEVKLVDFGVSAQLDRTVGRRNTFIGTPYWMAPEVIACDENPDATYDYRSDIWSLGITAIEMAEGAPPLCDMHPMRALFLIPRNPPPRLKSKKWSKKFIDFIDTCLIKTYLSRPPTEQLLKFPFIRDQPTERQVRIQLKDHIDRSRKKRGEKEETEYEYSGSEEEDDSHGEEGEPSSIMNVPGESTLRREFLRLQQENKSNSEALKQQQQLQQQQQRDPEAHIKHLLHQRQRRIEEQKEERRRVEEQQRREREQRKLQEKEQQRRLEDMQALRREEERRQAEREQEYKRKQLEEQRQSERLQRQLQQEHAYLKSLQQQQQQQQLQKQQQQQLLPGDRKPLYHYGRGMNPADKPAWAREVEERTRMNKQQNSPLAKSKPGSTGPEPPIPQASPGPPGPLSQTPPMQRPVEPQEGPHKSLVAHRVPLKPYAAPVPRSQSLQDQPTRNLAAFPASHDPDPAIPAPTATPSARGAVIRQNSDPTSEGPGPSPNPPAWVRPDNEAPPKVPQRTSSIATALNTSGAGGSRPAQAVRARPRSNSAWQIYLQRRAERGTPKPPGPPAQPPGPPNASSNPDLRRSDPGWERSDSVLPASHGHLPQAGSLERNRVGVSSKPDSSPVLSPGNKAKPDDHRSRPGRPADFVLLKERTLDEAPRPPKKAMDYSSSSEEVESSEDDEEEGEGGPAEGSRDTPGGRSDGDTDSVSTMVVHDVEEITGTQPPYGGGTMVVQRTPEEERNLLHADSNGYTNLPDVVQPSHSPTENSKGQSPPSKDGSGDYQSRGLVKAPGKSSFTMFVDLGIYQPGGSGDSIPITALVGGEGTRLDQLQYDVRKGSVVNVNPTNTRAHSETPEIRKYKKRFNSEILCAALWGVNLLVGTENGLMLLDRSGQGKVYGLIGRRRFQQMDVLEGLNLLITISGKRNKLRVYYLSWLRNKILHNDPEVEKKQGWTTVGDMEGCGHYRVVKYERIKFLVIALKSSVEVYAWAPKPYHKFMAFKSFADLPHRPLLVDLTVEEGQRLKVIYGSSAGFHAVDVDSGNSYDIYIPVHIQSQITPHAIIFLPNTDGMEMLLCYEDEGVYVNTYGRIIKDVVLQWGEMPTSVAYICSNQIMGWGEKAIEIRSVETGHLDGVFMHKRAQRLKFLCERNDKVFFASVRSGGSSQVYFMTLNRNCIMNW
# Chain of Mitogen-activated protein kinase kinase kinase 20 (Homo sapiens) (Q9NYL2 2-800 limits assumed): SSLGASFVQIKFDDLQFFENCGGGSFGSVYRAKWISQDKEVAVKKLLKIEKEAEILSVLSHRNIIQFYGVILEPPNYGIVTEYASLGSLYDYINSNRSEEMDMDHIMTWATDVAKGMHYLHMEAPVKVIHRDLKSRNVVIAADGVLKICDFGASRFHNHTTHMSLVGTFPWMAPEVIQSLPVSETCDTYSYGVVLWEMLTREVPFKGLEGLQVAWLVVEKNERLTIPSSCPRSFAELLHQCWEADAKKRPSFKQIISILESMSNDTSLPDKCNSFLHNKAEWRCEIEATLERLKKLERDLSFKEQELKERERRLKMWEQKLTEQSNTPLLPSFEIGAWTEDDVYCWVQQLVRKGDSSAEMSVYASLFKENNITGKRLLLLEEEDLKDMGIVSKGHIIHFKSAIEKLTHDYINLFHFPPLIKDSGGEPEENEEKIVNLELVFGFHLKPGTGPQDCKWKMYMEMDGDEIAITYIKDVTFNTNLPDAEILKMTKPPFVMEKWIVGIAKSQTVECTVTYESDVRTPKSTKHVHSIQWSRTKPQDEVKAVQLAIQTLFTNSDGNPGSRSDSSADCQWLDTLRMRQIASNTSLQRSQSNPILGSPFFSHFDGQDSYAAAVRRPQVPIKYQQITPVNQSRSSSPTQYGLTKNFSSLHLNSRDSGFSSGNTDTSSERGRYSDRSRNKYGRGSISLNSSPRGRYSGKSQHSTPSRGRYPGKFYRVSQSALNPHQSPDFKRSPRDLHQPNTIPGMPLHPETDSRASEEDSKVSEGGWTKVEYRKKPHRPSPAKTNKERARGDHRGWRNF
# Chain of Mitogen-activated protein kinase kinase kinase 11 (Homo sapiens) (Q16584 whole entry, looked up): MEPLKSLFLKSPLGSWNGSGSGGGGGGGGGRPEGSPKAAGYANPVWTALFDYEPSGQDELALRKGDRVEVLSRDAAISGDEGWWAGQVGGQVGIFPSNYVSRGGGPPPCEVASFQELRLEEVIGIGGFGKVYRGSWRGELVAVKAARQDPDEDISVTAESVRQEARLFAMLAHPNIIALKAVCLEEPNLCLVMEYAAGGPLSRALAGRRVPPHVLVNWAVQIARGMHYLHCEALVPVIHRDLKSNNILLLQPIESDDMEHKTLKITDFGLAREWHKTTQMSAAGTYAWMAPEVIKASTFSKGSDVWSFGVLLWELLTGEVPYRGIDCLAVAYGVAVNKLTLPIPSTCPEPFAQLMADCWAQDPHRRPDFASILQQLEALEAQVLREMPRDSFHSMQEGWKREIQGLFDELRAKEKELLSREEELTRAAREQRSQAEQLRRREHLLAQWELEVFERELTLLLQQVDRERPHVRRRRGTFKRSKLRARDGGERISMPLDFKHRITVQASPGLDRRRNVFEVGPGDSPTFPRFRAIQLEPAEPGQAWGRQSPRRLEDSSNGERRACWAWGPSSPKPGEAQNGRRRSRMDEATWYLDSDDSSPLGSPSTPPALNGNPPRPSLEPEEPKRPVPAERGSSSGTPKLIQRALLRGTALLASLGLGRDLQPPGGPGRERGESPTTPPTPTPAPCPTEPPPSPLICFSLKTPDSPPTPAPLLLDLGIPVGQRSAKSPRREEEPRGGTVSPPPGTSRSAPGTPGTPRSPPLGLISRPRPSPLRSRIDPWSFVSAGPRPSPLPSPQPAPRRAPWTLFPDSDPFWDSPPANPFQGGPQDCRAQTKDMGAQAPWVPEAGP
# Chain of Ribosomal protein S6 kinase alpha-4 (Homo sapiens) (O75676 whole entry, looked up): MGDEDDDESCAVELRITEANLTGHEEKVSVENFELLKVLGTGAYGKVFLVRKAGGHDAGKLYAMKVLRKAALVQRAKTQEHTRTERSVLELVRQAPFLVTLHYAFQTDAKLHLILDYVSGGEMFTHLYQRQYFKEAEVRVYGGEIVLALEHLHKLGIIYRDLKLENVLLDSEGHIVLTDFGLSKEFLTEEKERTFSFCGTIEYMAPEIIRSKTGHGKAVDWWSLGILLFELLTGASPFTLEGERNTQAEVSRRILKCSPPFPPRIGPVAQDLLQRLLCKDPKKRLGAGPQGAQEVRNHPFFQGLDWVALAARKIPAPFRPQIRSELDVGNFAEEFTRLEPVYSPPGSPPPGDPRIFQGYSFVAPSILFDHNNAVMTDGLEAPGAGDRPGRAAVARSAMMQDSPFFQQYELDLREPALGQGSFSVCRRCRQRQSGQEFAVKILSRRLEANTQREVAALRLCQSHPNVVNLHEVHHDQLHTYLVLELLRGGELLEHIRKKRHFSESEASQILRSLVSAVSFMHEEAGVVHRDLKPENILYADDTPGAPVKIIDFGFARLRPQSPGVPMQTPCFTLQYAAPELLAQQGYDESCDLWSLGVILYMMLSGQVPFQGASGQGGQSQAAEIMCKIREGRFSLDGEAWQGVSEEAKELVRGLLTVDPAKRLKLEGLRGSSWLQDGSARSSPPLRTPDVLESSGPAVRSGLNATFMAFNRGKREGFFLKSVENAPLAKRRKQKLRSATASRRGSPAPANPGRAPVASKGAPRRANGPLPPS
# Chain of Inhibitor of nuclear factor kappa-B kinase subunit epsilon (Q14164 whole entry): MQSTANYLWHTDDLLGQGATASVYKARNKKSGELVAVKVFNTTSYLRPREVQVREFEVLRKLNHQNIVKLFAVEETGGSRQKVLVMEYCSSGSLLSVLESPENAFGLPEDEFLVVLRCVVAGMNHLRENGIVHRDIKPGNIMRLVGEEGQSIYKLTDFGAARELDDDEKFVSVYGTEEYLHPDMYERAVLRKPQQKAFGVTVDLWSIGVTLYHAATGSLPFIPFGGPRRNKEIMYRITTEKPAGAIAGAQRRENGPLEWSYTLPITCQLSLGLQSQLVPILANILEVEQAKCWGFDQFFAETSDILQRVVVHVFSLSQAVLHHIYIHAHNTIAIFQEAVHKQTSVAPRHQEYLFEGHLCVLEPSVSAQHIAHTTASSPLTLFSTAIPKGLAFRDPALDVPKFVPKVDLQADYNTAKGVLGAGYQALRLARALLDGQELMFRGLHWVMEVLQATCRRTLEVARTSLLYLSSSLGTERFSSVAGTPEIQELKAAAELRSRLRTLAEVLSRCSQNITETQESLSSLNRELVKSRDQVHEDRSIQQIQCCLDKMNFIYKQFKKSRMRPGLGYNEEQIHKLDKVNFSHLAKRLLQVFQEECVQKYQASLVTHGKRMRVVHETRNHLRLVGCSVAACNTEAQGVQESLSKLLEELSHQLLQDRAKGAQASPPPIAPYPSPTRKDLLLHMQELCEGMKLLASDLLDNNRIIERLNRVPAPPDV
compound,measurement,setting,value
COc1cc(Nc2nc(C)cc(-c3cnn4nc(OC)ccc34)n2)cc(C(F)(F)F)c1,% of control,[1],96%
CCc1cc(Nc2nccc(-c3c(-c4ccc(OC)c(C(=O)Nc5c(F)cccc5F)c4)nc4ccccn34)n2)c(OC)cc1N1CCC(N2CCN(S(C)(=O)=O)CC2)CC1,IC50,[2],3.2 µM
COc1cc(N(C)c2ccnc3ccc(C(F)(F)F)cc23)cc(OC)c1OC,% binding,[3],86%
Nc1cnc(N2CCc3cc(S(=O)(=O)Nc4c(F)cc(Cl)cc4F)cc(N4CCCC4=O)c32)nc1 [TP-020n],% of control,[4],80%
CN(C)C/C=C/C(=O)Nc1ccc(C(=O)N2CCCC(Nc3ncc(Cl)c(-c4c[nH]c5ccccc45)n3)C2)cc1 (stereo not given),% of control,[5],84%
C=CC(=O)Nc1cc(-n2c(=O)ccc3cnc4ccc(-c5ccc(NS(C)(=O)=O)cc5)cc4c32)ccc1C,% of control,[6]; at 1 µM,64%
same,% of control,[6]; at 10 µM,12%
O[C@H]1CC[C@H](Nc2ncc3nc(Nc4c(F)cc(F)cc4F)n([C@H]4CCOC4)c3n2)CC1,% of control,[7],98%
Cc1cc(F)c(C(=O)Nc2cccc(-c3nncn3C(C)C)n2)cc1-n1cnc(C2CC2)c1,% of control,[8],69%
CNC(=O)Nc1ccc(-c2nc(N3CC4CCC(C3)O4)c3cnn(C4CCC5(CC4)OCCO5)c3n2)cc1,% of control,Misshapen-like kinase 1,100%
